Assay results reported in patent US9242977B2, “Trk-inhibiting compound” (ONO PHARMACEUTICAL CO., LTD., priority 2012, dated 2016).

Assays:
Abl = Abl (Homo sapiens (Human), UniProt P00519); experiment: Enzyme inhibition activity test for kinases other than Trk (selectivity test): Abl; assay type: biochemical; conditions: test concentration 3 μM; read-out: Inhibition Rate (%) Abl
Method: (§1) A test substance (present compound or comparative compound) was dissolved in dimethylsulfoxide and further diluted with dimethylsulfoxide to prepare a solution having a concentration of 100 times the test concentration of 3 μM. The solution was further diluted to 25-fold with an assay buffer (20 mM HEPES, 0.01% Triton X-100, 2 mM DTT, pH 7.5) to obtain a test substance solution. In a similar manner a positive control substance solution was prepared with a positive control substance.
(§2) A 4-times concentration solution (5 μL) of the test substance prepared with the assay buffer, 5 μL of a 4-times concentration solution of substrate/ATP/metal (Mg) and 10 μL of a 2-times concentration solution of kinase were mixed in a well of a polypropylene 384-well plate and allowed to react at room temperature for 1 hour. The reaction was terminated by adding 60 μL of a Termination Buffer (QuickScout Screening Assist MSA; Carna Biosciences). The substrate peptide and the phosphorylated peptide in the reaction solution were separated and quantified. The kinase reaction was assessed from the product ratio (P/(P+S)) calculated from the height (S) of the peak of the substrate peptide and the height (P) of the peak of the phosphorylated peptide. Other kinases used in the kinase selectivity experiments were, for example, Abl, c-Met, b-Raf, c-Kit and KDR. The following Table 2 indicates substrates, substrate concentrations, ATP concentrations and positive control substances used in respective kinase enzyme inhibition activity tests.
(§3) The inhibition rate was calculated from the average signal intensity of the test wells containing respective test substances provided that the average signal intensity of control wells each containing all reaction components was 0% inhibition and the average signal intensity of background wells (without addition of the enzyme) was 100% inhibition.

c-Met = c-Met (Homo sapiens (Human), UniProt P08581); experiment: Enzyme inhibition activity test for kinases other than Trk (selectivity test): c-Met; assay type: biochemical; conditions: test concentration 3 μM; read-out: Inhibition Rate (%) c-Met
Chain of c-Met (P08581 25-1390): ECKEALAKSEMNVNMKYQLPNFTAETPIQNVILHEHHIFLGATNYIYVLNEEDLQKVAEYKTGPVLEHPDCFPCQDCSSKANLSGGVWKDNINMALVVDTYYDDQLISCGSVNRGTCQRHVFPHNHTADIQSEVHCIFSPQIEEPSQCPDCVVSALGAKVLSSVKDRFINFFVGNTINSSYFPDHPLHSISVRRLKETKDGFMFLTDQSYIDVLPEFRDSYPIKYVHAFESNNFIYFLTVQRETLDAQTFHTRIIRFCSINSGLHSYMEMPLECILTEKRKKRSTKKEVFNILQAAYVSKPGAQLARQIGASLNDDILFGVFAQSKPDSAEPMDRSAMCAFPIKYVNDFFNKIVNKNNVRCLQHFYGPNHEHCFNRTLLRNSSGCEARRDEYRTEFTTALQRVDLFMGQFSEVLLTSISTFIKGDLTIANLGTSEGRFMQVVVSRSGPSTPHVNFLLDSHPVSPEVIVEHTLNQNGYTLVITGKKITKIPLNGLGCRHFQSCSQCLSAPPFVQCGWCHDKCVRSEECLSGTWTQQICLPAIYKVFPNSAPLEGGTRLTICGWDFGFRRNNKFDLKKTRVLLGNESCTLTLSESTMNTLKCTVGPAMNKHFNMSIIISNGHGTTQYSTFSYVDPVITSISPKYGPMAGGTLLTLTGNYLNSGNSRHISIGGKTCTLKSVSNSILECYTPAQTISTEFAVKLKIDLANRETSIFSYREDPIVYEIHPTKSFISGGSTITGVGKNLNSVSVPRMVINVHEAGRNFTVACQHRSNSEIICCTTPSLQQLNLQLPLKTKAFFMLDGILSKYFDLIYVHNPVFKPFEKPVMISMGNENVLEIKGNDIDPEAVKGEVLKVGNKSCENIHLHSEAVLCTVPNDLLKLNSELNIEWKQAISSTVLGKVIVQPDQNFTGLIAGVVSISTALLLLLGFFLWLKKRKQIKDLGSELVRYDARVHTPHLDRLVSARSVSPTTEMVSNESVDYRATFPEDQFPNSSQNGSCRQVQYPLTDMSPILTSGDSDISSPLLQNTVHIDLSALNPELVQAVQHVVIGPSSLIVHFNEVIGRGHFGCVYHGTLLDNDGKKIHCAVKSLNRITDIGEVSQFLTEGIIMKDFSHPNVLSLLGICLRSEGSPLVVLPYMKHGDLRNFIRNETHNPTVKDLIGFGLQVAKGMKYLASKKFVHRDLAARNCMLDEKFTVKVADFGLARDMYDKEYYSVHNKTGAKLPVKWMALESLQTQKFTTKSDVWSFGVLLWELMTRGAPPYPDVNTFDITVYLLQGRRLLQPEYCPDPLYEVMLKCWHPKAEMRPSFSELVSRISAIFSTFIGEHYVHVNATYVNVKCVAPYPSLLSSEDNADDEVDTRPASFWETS
Method: as §1, §2, §3

b-Raf = b-Raf (Homo sapiens (Human), UniProt P15056); experiment: Enzyme inhibition activity test for kinases other than Trk (selectivity test): b-Raf; assay type: biochemical; conditions: test concentration 3 μM; read-out: Inhibition Rate (%) b-Raf
Method: as §1, §2, §3

c-Kit = c-Kit (Homo sapiens (Human), UniProt P10721); experiment: Enzyme inhibition activity test for kinases other than Trk (selectivity test): c-Kit; assay type: biochemical; conditions: test concentration 3 μM; read-out: Inhibition Rate (%) c-Kit
Method: as §1, §2, §3

KDR = KDR (Homo sapiens (Human), UniProt P35968); experiment: Enzyme inhibition activity test for kinases other than Trk (selectivity test): KDR; assay type: biochemical; conditions: test concentration 3 μM; read-out: Inhibition Rate (%) KDR
Chain of KDR (P35968 20-1356): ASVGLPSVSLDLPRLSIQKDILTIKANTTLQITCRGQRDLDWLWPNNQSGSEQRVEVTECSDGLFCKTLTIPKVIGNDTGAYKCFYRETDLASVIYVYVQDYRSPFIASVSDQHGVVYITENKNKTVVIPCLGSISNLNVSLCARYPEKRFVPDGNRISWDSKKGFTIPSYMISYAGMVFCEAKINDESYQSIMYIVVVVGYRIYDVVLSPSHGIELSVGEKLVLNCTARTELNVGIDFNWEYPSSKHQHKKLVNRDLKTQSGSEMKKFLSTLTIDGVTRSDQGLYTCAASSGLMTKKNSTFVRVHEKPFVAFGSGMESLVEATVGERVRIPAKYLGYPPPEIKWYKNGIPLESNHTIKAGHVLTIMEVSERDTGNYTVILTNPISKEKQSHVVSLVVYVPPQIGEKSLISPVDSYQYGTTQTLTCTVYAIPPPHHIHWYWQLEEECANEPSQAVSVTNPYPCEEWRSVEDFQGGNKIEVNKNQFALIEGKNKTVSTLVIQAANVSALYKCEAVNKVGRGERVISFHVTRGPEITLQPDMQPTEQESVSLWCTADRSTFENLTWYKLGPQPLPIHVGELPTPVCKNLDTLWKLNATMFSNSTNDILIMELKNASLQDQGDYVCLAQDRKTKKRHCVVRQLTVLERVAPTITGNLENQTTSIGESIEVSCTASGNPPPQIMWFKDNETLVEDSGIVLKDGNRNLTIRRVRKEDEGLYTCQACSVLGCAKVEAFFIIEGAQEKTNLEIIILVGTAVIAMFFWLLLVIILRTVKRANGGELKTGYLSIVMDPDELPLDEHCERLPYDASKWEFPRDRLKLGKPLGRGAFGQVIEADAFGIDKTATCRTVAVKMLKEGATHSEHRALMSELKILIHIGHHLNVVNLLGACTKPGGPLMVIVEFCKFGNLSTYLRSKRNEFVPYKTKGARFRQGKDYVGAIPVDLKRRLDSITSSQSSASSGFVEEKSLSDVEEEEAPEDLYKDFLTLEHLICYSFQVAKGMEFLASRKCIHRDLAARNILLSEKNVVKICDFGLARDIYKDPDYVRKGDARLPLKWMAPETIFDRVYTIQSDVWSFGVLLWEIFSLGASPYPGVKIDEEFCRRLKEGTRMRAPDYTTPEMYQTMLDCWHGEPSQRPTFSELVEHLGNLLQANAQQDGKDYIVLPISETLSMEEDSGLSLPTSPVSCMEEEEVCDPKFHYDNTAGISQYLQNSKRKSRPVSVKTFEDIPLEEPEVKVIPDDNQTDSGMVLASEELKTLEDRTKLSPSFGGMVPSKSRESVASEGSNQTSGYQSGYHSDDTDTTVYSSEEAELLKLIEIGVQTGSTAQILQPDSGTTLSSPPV
Method: as §1, §2, §3

TrkA = TrkA (Homo sapiens (Human), UniProt P04629); experiment: TrkA kinase-inhibiting activity using human TrkA expressing cells (CellSenser TrkA-NFAT-bla CHO-K1, NGF-stimulated reporter assay); assay type: cell-based; conditions: CHO-K1 cells expressing human TrkA and NFAT-bla; NGF 50 ng/ml; read-out: TrkA inhibitory activity (IC50; μM)
Chain of TrkA (P04629 33-796): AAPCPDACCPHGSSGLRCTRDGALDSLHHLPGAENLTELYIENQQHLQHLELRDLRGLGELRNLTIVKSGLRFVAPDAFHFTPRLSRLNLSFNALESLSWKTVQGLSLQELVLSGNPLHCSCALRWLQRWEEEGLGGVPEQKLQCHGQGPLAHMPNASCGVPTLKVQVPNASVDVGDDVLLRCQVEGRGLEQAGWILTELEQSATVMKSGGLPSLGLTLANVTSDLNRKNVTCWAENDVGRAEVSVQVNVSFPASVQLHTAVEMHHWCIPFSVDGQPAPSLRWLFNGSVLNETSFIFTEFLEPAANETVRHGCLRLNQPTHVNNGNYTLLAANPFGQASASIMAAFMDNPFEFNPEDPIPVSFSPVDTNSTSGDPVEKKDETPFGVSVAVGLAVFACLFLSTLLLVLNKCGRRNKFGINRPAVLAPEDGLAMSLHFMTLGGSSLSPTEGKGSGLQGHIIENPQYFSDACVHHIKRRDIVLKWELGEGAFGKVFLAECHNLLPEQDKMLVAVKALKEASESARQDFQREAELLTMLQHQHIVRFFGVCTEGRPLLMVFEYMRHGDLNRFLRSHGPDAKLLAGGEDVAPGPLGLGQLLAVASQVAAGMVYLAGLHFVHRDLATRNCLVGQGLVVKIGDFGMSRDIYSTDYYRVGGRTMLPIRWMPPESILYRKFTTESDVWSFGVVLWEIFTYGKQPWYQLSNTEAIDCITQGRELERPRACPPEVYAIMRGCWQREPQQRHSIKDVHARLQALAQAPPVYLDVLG
Method: TrkA kinase-inhibiting activity in cell systems was measured using CHO-K1 cells expressing human TrkA and NFAT-bla (CellSenser™ TrkA-NFAT-bla CHO-K1 cells, Invitrogen).
On the day before the assay, CellSenser™ TrkA-NFAT-bla CHO-K1 cells were suspended in an assay medium (Opti-MEM1 Reduced Serum Medium (Invitrogen) containing 0.5% dialysed fetal bovine serum (Invitrogen), 0.1 mM nonessential amino acids (Invitrogen), 1 mM sodium pyruvate (Invitrogen) and antibiotics (100 U/mL penicillin and 100 μg/mL streptomycin (Invitrogen)) and plated at a density of 2.4×10^4 cells/40 μL/well in a 96-well clear bottom plate (Corning, Catalogue No.: 3882). In some wells were added only the assay medium at 40 μL/well (Cell-free). On the day of the assay, 10 mM of the present compound (DMSO solution) was distributed in a 96-well plate (Costar, Catalogue No.: 3363) and serially diluted with DMSO with the geometrical ratio of 3. The serial dilutions were diluted with the assay medium to 100-fold to prepare a solution of the present compound with a 10-times concentration (DMSO concentration: 1%). To the plate where cells were plated was added the present compound at 5 μL/well and the plate was incubated in a CO2 incubator with 5% CO2, 95% Air at 37° C. for 30 minutes. For a control and a blank, the assay medium containing 1% DMSO was added at 5 μL/well in place of the solution of the present compound. Subsequently the assay medium containing NGF (Mouse 2.5s, Natural, Invitrogen) was added to the plate at 5 µL/well (final concentration of NGF: 50 ng/ml) and the plate was incubated in a CO2 incubator with 5% CO2, 95% Air at 37° C. for 5 hours. For a group of blanks, the assay medium was added in place of NGF at 5 μL/well. A reporter assay detection reagent (10 μL/well) was added to the plate and the plate was then incubated in the dark at room temperature for 120 minutes. The reporter assay detection reagent was prepared from LiveBLAzer™-FRET B/G Loading Kit (Invitrogen). On an Analyst GT (Molecular Devices Japan, K.K.) the wells were irradiated with excitation light at 405 nm and the fluorescence intensities at 460 nm and 530 nm were measured. The time resolved fluorescence resonance energy transfer (TR-FRET) ratio of each well was calculated according to the following Equation 2. TR-FRET Ratio=(A460X−A460F)/(A530X−A530F) Equation 2
wherein A460X: the fluorescence intensity at 460 nm of the present compound, control or blank;
A460F: the fluorescence intensity at 460 nm of the Cell-free;
A530X: the fluorescence intensity at 530 nm of the present compound, control or blank; and
A530F: the fluorescence intensity at 530 nm of the Cell-free. […]
The IC50 value of the present compound was calculated from the inhibition curve based on the inhibition rate of the present compound at respective concentrations.

Chain of Abl (P00519 whole entry): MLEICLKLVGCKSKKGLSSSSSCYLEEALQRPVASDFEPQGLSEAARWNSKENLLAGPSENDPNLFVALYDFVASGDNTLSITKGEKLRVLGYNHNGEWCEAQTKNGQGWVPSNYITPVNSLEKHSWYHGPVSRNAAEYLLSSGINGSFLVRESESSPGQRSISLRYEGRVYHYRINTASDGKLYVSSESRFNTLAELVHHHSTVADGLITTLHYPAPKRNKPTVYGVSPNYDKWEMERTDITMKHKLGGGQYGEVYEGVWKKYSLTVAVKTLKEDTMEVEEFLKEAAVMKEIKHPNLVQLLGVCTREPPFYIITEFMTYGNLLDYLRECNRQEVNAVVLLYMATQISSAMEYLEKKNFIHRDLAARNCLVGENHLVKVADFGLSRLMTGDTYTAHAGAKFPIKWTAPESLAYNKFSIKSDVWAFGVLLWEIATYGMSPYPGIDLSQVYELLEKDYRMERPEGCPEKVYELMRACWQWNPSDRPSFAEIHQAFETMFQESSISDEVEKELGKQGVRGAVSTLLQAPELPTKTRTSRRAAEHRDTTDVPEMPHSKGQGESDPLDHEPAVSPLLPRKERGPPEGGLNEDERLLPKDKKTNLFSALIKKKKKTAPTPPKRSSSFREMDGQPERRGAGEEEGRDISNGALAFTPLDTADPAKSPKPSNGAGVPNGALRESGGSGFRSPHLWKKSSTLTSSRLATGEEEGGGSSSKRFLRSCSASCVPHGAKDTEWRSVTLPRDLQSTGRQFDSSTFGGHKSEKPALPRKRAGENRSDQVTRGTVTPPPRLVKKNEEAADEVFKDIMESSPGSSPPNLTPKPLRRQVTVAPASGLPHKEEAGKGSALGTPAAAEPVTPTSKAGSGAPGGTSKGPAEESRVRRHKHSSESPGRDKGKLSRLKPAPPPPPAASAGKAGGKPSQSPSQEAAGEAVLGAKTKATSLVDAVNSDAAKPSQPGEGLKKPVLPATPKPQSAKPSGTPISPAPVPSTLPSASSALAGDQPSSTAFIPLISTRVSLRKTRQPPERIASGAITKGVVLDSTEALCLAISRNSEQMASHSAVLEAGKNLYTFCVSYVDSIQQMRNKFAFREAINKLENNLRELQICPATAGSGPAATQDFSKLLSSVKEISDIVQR

Molecule `CCNc1ncc(-c2ccc(Oc3ncc(NC(=O)Nc4cc(C(F)(F)F)cnc4-c4ccc(C)cc4)cn3)cc2)s1` [Example 23, 1-(2-{4-[2-(ethylamino)-1,3-thiazol-5-yl]phenoxy}-5-pyrimidinyl)-3-[2-(4-methylphenyl)-5-(trifluoromethyl)-3-pyridinyl]urea] has an inhibition at 3 µM (Abl) of 25%, an inhibition at 3 µM (c-Met) of 6.5% and an inhibition at 3 µM (b-Raf) of 23%. It also gave an inhibition at 3 µM (c-Kit) of 31%, an inhibition at 3 µM (KDR) of 15% and an IC50 (TrkA) of 0.004 µM.
`CCNc1ncc(-c2ccc(Oc3ccc(NC(=O)Nc4cc(C(F)(F)F)cnc4-c4ccc(C)c(C)c4)cn3)cc2)s1` [Example 34, 1-[2-(3,4-dimethylphenyl)-5-(trifluoromethyl)-3-pyridinyl]-3-(6-{4-[2-(ethylamino)-1,3-thiazol-5-yl]phenoxy}-3-pyridinyl)urea] was tested, and the IC50 (TrkA) was 0.006 µM.
In the case of `CCNc1ncc(-c2ccc(Oc3ncc(NC(=O)Nc4cc(C(F)(F)F)cnc4Oc4ccccc4)cn3)cc2)s1` [Example 48, 1-(2-{4-[2-(ethylamino)-1,3-thiazol-5-yl]phenoxy}-5-pyrimidinyl)-3-[2-phenoxy-5-(trifluoromethyl)-3-pyridinyl]urea], the IC50 (TrkA) is reported as 0.01 µM.
With `O=C(Nc1cnc(Oc2ccc(-c3cnc(N4CCCC4=O)s3)cc2)nc1)Nc1cc(C(F)(F)F)cnc1-c1ccccc1` [Example 54, 1-(2-{4-[2-(2-oxo-1-pyrrolidinyl)-1,3-thiazol-5-yl]phenoxy}-5-pyrimidinyl)-3-[2-phenyl-5-(trifluoromethyl)-3-pyridinyl]urea] the inhibition at 3 µM (Abl) was 8.9%, the inhibition at 3 µM (c-Met) was 0% and the inhibition at 3 µM (b-Raf) was 17%. For the same molecule, the inhibition at 3 µM (c-Kit) was 7.2%, the inhibition at 3 µM (KDR) was 2.4% and the IC50 (TrkA) was 0.004 µM.
In the case of `Cc1cccc(-c2ncc(C(F)(F)F)cc2NC(=O)Nc2cnc(Oc3ccc(-c4cnc(N5CCCC5=O)s4)cc3)nc2)c1` [Example 57, 1-[2-(3-methylphenyl)-5-(trifluoromethyl)-3-pyridinyl]-3-(2-{4-[2-(2-oxo-1-pyrrolidinyl)-1,3-thiazol-5-yl]phenoxy}-5-pyrimidinyl)urea], the inhibition at 3 µM (Abl) is reported as 0%, the inhibition at 3 µM (c-Met) is reported as 4.9% and the inhibition at 3 µM (b-Raf) is reported as 18%. The inhibition at 3 µM (c-Kit) was 9.1%, the inhibition at 3 µM (KDR) was 0% and the IC50 (TrkA) was 0.003 µM.
With `CCCNc1ncc(-c2ccc(Oc3ncc(NC(=O)Nc4cc(C(F)(F)F)ccc4Cl)cn3)cc2)s1` [Example 85-117, 1-[2-chloro-5-(trifluoromethyl)phenyl]-3-(2-{4-[2-(propylamino)-1,3-thiazol-5-yl]phenoxy}-5-pyrimidinyl)urea] the inhibition at 3 µM (Abl) was 0%, the inhibition at 3 µM (c-Met) was 0% and the inhibition at 3 µM (b-Raf) was 13%. The inhibition at 3 µM (c-Kit) was 19%, the inhibition at 3 µM (KDR) was 0% and the IC50 (TrkA) was 0.002 µM.
